From patent US10799600B1, “Targeted nanoparticles” (nanoDERM Sciences, Inc., priority 2010, dated 2020)

Experiments:
[1] = tested on: multi-drug resistant (and expanded-spectrum beta-lactamase resistant) Acinetobacter baumannii (BAA-1605); experiment: Clearing zone test on tryptic soy agar against multi-drug resistant Acinetobacter baumannii; format: cell-based; details: for resistance / sensitivity to control antibiotics: clinically relevant dose 10 μg/ml, A. baumannii
Description: (§1) FIG. 7 nanogels conjugated with polymyxin B (PmxnB) or vancomycin (VCM) and/or loaded with 5 mg/nil penicillin/streptomycin (Pen/Strep), and tested on tryptic soy agar for activity against multi-drug resistant (and expanded-spectrum beta-lactamase resistant) Acinetobacter baumannii (BAA-1605). (1) unmodified particle, Pen/Strep loaded; (2) unmodified particle; (3) Pen-Strep loaded and conjugated with PmxnB; (4) conjugated with PmxnB; (5) conjugated with VCM, Pen-Strep loaded; (6) conjugated with VCM; (7) conjugated with PmxnB/AMCA, Pen/Strep loaded; (8) conjugated with PmxnB/AMCA (fluorescent agent); (9) conjugated with VCM/AMCA, Pen/Strep loaded; (10) conjugated with VCM/AMCA; (11) PmxnB at 5 mg/ml; (12) VCM at 5 mg/ml; (13) Pen/Strep at 5 mg/ml; (14) PmxnB at 100 μg/ml; (15) VCM at 100 μg/ml; (16) Pen/Strep at 100 μg/ml; (17) PmxnB at 10 μg/ml; (18) VCM at 10 μg/ml; (19) Pen/Strep at 10 μg/ml.
(§2) Acinetobacter baumannii (a) treated with the hydrogel conjugated with polymyxin B (PMB) produced a clearing zone of ˜15 mm in diameter. […] Methicillin-resistant S. aureus (MRSA) (b) treated with VCM-conjugated particles produced a clearing zone of ˜15 mm in diameter.
(§3) The concept for targeted killing of bacterial pathogens with the hydrogels of the invention is illustrated in FIG. 1.

[2] = tested on: multi-drug resistant (MRSA) Staphylococcus aureus (NRS-385); experiment: Clearing zone test on tryptic soy agar against MRSA; format: cell-based; details: for resistance / sensitivity to control antibiotics: clinically relevant dose 10 μg/ml
Description: as §1, with “FIG. 8 nanogels conjugated” for “FIG. 7 nanogels conjugated”, “with 5 mg/ml penicillin/streptomycin (Pen/Strep),” for “with 5 mg/nil penicillin/streptomycin (Pen/Strep),”, “multi-drug resistant (MRSA) Staphylococcus aureus (NRS-385). (1) unmodified” for “multi-drug resistant (and expanded-spectrum beta-lactamase resistant) Acinetobacter baumannii (BAA-1605). (1) unmodified”, “at 5 mg/nil; (14) PmxnB” for “at 5 mg/ml; (14) PmxnB”
as §2, §3

| Compound | resistance / sensitivity to control antibiotics [1] | inhibition (clearing zone) ([1]; free control antibiotics (10 μg/ml), MDR A. baumannii) | resistance / sensitivity to control antibiotics [2] | clearing zone ([2]; free antibiotic 10 μg/ml) | clearing zone ([1]; free antibiotic 10 μg/ml, MDR A. baumannii) | inhibition (clearing zone) ([2]; free control antibiotics at 10 μg/ml) |
| --- | --- | --- | --- | --- | --- | --- |
| CN[C@H](CC(C)C)C(=O)N[C@H]1C(=O)N[C@@H](CC(N)=O)C(=O)N[C@H]2C(=O)N[C@H]3C(=O)N[C@H](C(=O)N[C@H](C(=O)O)c4cc(O)cc(O)c4-c4cc3ccc4O)[C@H](O)c3ccc(c(Cl)c3)Oc3cc2cc(c3O[C@@H]2O[C@H](CO)[C@@H](O)[C@H](O)[C@H]2O[C@H]2C[C@](C)(N)[C@H](O)[C@H](C)O2)Oc2ccc(cc2Cl)[C@H]1O [Free VCM, Vancomycin] | resistant | no inhibition | sensitive | ~6 mm | – | – |
| polymyxin B [Free PMB] | sensitive | – | resistant | – | ~6 mm | no inhibition |
